Bridge positions count the residues as written; N and C are the ends. Square brackets hold non-standard residues; d marks the D form. Peptide text beside a SMILES is read from it. * marks the point of attachment. Palmitoyl = CCCCCCCCCCCCCCCC(=O)*; Dap = NC[C@H](N)C(=O)O; AEEA = NCCOCCOCC(=O)O
Molecular target: T1, NPR-C (Homo sapiens, UniProt P17342)
T1 construct: HeLa cells (known to express NPR-C); host or cells: HeLa cells
T1 sequence (P17342 27-541): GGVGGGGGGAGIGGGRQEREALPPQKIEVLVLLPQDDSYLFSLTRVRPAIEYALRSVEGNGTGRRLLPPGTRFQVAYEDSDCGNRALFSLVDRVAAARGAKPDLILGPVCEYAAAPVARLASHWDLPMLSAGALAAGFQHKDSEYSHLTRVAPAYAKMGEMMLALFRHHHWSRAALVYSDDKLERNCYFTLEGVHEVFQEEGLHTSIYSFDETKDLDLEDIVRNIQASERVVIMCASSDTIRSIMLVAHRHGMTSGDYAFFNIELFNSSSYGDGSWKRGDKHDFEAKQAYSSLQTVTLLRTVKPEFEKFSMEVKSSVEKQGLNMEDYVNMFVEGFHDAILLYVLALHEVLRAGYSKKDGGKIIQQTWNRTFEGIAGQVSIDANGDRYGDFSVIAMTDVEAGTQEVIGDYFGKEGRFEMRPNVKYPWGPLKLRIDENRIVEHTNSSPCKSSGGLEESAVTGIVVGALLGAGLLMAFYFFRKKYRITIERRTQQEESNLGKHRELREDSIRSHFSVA
Assay: cAMP baseline levels in HeLa cells (FIG. 13)
Type: cell-based
Conditions: 10 μg/mL, 10 minutes, 1 mM IBMX
Protocol: In this study, HeLa cells were cultured in Dulbecco modified Eagle medium (DMEM) supplemented with 10% FBS under 100% humidity and 5% CO2 at 37° C. The cells were harvested and suspended at a concentration of 10^7 cells/mL in ENGS and 5 uL of the cell suspension was added to each well of a 96-well low-adhesion plate. The cells (n=4 wells) were then treated with 5 uL of SEQ ID NO: 31 (final concentration of 10 μg/mL) in ENGS with 1 mM IBMX for 10 minutes. cAMP levels were evaluated using a cAMP assay kit (PerkinElmer, Waltham, MA, USA, #62AM4PEB) in accordance with its manufacture's protocol with a PerkinElmer plate reader. Statistical analysis was performed with GraphPad Prism against untreated control wells (n=4 wells) * P<0.05. The NPR-C receptor has been implicated in inhibiting adenylate cyclase activity, which would lead to a decrease in cyclic adenosine monophosphate (cAMP) production.
In vitro protocol: HeLa cells were purchased from ATCC (Manassas, VA, USA). […] Then, the cells (n=4 wells) were treated with 5 uL of SEQ ID NO: 31 (final concentration of 10 μg/mL) in ENGS with 1 mM IBMX (Fujifilm, Tokyo, Japan, #099-03411) for 10 minutes. cAMP levels were evaluated using a cAMP assay kit (PerkinElmer, Waltham, MA, USA, #62AM4PEB) in accordance with its manufacture's protocol with a plate reader (PerkinElmer, Waltham, MA, USA, #Nivo). […]

## CCCCCCCCCCCCCCCC(=O)NCCOCCOCC(=O)NCCOCCOCC(=O)NCCOCCOCC(=O)N[C@@H](CN)C(=O)N[C@@H](CN)C(=O)NCC(=O)N[C@@H](CC(C)C)C(=O)N[C@@H](CO)C(=O)N[C@@H](CCCCN)C(=O)NCC(=O)N[C@H]1CSSC[C@@H](C(=O)O)NC(=O)CNC(=O)[C@H](CC(C)C)NC(=O)CNC(=O)[C@H](CO)NC(=O)[C@H](CCC(N)=O)NC(=O)[C@H](CO)NC(=O)CNC(=O)[C@H]([C@@H](C)CC)NC(=O)[C@H](CCCNC(=N)N)NC(=O)[C@H](CC(=O)O)NC(=O)[C@H](CC(C)C)NC(=O)[C@H](CCCCN)NC(=O)[C@H](CC(C)C)NC(=O)CNC(=O)[C@H](Cc2ccccc2)NC1=O [SEQ ID NO: 31] ({Palmitoyl-AEEA-AEEA-AEEA}-[Dap][Dap]GLSKGCFGLKLDRIGSQSGLGC-OH; disulfide 8-24; C-terminus assumed)
  cAMP baseline levels of HeLa cells: changes (inhibition) of cAMP baseline levels
